Measurements: patent US9624208B2, “Benzoxazolinone compounds with selective activity in voltage-gated sodium channels” (Merck Sharp & Dohme Corp., priority 2012, dated 2017)
Values belong to the compound of their own block, whether it stands above or below them.

Experiments:
human Nav1.5 = molecular target: T1, human Nav1.5 (Homo sapiens, UniProt Q14524); assay: PatchXpress sodium current measurement, inactivated state block, Nav1.5; format: cell-based; settings: determined by PatchXpress measurement, HEK 293 cells
T1 construct: expressed in transfected cells
T1 sequence (Q14524 whole entry): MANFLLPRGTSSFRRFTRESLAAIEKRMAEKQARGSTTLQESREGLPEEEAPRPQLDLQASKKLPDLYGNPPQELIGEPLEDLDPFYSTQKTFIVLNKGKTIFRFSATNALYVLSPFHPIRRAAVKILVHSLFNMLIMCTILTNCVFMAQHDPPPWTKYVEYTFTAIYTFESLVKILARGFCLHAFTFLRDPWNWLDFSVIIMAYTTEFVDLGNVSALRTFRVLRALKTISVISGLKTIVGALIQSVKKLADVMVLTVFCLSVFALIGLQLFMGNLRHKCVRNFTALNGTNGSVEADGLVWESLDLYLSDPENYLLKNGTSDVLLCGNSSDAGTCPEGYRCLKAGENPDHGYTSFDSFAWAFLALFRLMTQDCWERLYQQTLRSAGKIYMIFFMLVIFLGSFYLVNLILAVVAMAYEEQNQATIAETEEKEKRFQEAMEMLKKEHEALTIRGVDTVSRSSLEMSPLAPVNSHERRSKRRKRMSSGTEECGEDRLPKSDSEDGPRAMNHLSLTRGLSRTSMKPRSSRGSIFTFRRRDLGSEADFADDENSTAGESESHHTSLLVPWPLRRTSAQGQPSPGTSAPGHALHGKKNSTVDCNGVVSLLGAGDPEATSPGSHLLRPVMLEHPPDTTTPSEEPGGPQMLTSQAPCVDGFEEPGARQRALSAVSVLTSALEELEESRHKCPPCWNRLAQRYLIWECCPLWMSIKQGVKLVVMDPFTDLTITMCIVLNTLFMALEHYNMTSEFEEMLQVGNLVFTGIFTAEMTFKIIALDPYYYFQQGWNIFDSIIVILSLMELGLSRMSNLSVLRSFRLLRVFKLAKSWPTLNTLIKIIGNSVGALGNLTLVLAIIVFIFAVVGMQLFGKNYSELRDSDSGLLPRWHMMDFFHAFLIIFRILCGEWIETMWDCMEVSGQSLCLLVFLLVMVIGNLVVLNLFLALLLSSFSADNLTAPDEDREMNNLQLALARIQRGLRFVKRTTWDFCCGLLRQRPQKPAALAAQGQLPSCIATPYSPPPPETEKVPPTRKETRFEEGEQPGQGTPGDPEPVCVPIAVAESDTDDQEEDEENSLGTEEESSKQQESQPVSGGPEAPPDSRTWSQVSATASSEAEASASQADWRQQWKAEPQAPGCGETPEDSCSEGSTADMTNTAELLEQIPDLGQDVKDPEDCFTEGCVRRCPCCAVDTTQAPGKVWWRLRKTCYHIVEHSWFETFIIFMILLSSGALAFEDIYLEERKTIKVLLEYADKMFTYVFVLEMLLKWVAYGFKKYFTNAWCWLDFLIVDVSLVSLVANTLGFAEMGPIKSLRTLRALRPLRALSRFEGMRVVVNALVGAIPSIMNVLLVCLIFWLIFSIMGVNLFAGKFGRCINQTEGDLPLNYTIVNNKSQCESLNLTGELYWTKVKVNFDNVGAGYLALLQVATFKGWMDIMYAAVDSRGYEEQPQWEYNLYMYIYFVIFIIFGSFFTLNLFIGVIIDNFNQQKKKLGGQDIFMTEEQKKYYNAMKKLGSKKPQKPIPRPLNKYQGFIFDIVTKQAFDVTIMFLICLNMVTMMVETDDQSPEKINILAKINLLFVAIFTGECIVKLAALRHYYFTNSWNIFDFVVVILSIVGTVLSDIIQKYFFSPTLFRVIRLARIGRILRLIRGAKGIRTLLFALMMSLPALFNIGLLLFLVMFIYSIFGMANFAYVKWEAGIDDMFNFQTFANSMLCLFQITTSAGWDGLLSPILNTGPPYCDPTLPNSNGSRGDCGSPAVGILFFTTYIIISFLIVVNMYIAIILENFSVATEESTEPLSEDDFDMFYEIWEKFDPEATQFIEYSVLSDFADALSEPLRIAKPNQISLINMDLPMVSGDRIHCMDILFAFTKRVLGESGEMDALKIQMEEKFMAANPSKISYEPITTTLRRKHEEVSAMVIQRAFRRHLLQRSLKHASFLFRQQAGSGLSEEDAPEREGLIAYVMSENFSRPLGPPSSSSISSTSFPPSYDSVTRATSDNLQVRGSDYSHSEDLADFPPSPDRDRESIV
How it was run: (§1)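 HEK293 cells stably expressing channel; automated patch clamp at 22 °C, double-pulse protocol: hold 20 mV below V½ inactivation, 8000 ms prepulse 7 mV above V½, 2 ms step to −120 mV, 20 ms test pulse to −20 mV. CsF-based internal (pH 7.3), NMDG/40 mM NaCl external (pH 7.5). Rundown-corrected % inhibition (≥2 concentrations) fitted to Hill equation for IC50.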

human Nav1.7 = molecular target: T2, human Nav1.7 (Homo sapiens, UniProt Q15858); assay: PatchXpress sodium current measurement, inactivated state block, Nav1.7; format: cell-based; settings: channels stably expressed in HEK 293 cells, double-pulse protocol, 22° C., read-out: potency for the Nav 1.7 sodium ion channel (1.7=)
T2 construct: expressed in transfected cells
T2 sequence (Q15858 whole entry): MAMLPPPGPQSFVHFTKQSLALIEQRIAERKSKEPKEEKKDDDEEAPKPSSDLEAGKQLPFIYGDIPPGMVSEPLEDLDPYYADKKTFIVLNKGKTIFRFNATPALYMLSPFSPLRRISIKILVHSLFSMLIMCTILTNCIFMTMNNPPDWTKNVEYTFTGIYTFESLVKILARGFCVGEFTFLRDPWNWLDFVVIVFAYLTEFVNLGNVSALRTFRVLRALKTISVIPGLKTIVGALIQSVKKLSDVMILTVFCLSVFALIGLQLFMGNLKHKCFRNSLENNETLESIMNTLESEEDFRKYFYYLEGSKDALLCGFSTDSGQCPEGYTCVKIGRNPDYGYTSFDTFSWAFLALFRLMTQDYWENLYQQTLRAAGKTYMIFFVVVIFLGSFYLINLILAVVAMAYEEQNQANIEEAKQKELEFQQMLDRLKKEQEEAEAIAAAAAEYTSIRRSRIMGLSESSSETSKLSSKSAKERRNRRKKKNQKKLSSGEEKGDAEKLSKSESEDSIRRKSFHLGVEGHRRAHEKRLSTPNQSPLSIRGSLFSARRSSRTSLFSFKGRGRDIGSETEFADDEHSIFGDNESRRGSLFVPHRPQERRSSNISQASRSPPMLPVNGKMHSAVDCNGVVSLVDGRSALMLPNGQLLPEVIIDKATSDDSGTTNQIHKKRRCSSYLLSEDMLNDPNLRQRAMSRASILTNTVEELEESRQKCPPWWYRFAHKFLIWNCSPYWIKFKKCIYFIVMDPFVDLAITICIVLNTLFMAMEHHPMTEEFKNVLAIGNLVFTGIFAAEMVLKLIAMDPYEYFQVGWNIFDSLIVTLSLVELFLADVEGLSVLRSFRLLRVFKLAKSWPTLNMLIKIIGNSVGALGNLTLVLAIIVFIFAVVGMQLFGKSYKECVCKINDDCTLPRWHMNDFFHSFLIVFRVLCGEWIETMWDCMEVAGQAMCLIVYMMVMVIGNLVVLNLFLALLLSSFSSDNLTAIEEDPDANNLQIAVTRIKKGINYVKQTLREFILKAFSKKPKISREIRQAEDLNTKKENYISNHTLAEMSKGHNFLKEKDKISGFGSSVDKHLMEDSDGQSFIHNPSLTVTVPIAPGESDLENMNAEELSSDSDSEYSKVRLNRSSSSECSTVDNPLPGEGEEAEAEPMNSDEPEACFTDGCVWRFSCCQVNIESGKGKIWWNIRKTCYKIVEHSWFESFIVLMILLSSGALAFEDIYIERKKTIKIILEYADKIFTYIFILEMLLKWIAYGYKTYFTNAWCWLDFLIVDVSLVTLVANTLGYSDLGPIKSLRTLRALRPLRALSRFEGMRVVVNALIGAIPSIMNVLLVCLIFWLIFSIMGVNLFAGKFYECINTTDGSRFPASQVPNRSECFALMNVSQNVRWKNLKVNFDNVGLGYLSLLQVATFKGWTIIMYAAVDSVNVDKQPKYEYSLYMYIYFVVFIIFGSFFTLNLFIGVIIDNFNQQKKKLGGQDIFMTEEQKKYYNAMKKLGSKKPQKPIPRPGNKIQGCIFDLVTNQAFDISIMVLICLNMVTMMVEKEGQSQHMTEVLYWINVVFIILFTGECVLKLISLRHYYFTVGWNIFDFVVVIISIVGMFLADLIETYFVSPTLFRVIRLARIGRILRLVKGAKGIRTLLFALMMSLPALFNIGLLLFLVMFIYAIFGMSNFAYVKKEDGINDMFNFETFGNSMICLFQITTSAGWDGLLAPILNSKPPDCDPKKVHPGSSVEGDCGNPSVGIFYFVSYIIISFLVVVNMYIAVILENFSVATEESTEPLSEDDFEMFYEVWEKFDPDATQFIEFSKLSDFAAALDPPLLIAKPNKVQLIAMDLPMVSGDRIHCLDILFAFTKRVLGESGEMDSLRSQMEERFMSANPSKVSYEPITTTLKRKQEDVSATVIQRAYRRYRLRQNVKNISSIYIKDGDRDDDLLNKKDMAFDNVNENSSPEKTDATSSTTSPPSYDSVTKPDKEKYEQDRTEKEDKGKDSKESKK
How it was run: as §1

SMILES: C[C@H](c1cccc(C#CC2(N)CCCCC2)c1)n1c(=O)oc2cc(S(=O)(=O)Nc3cccc(F)n3)c(F)cc21 [Ex21-4, 3-[(1R)-1-{3-[(1-aminocyclohexyl)-ethynyl]phenyl}ethyl]-5-fluoro-N-(6-fluoropyridin-2-yl)-2-oxo-2,3-dihydro-1,3-benzoxazole-6-sulfonamide]
ratio of Nav 1.5:Nav 1.7 potency (human Nav1.5): 45 | IC50 (human Nav1.7): 226 nM

SMILES: C[C@H](c1cccc(C#CCNC2CCCCC2)c1)n1c(=O)oc2cc(S(=O)(=O)Nc3cccc(F)n3)c(F)cc21 [Ex21-6, 3-[(1R)-1-{3-[3-(cyclohexylamino)prop-1-yn-1-yl]phenyl}ethyl]-5-fluoro-N-(6-fluoropyridin-2-yl)-2-oxo-2,3-dihydro-1,3-benzoxazole-6-sulfonamide]
ratio of Nav 1.5:Nav 1.7 potency (human Nav1.5): 27 | IC50 (human Nav1.7): 382 nM

SMILES: C[C@H](c1cccc(C#CC2CCCCN2)c1)n1c(=O)oc2cc(S(=O)(=O)Nc3cccc(F)n3)c(F)cc21 (stereo partly drawn) [Ex21-9, 5-fluoro-N-(6-fluoropyridin-2-yl)-2-oxo-3-{(1R)-1-[3-(piperidin-2-ylethynyl)phenyl]ethyl}-2,3-dihydro-1,3-benzoxazole-6-sulfonamide]
ratio of Nav 1.5:Nav 1.7 potency (human Nav1.5): 74 | IC50 (human Nav1.7): 407 nM

SMILES: C[C@H](c1cccc(C#CC2CCCN2)c1)n1c(=O)oc2cc(S(=O)(=O)Nc3cccc(F)n3)c(F)cc21 (stereo partly drawn) [Ex21-10, 5-fluoro-N-(6-fluoropyridin-2-yl)-2-oxo-3-{(1R)-1-[3-(pyrrolidin-2-ylethynyl)phenyl]ethyl}-2,3-dihydro-1,3-benzoxazole-6-sulfonamide]
ratio of Nav 1.5:Nav 1.7 potency (human Nav1.5): 88 | IC50 (human Nav1.7): 342 nM

SMILES: C[C@H](c1cccc(C#CCN2CCNCC2)c1)n1c(=O)oc2cc(S(=O)(=O)Nc3cccc(F)n3)c(F)cc21 [Ex21-11, 5-fluoro-N-(6-fluoropyridin-2-yl)-2-oxo-3-[(1R)-1-{3-[3-(piperazin-1-yl)prop-1-yn-1-yl]phenyl}ethyl]-2,3-dihydro-1,3-benzoxazole-6-sulfonamide]
ratio of Nav 1.5:Nav 1.7 potency (human Nav1.5): 137 | IC50 (human Nav1.7): 189 nM

SMILES: C[C@H](c1cccc(C#CCN2CCN(C)CC2)c1)n1c(=O)oc2cc(S(=O)(=O)Nc3cccc(F)n3)c(F)cc21 [Ex21-14, 5-fluoro-N-(6-fluoropyridin-2-yl)-3-[(1R)-1-{3-[3-(4-methylpiperazin-1-yl)prop-1-yn-1-yl]phenyl}ethyl]-2-oxo-2,3-dihydro-1,3-benzoxazole-6-sulfonamide]
ratio of Nav 1.5:Nav 1.7 potency (human Nav1.5): 134 | IC50 (human Nav1.7): 234 nM

SMILES: C[C@H](c1cccc(C#C[C@@H]2CCCC[C@@H]2N)c1)n1c(=O)oc2cc(S(=O)(=O)Nc3cccc(F)n3)c(F)cc21 [Ex21-17, 3-[(1R)-1-(3-{[(1S,2S)-2-aminocyclohexyl]ethynyl}phenyl)ethyl]-5-fluoro-N-(6-fluoropyridin-2-yl)-2-oxo-2,3-dihydro-1,3-benzoxazole-6-sulfonamide]
ratio of Nav 1.5:Nav 1.7 potency (human Nav1.5): 41 | IC50 (human Nav1.7): 68 nM

SMILES: C[C@H](c1cccc(C#CC2CCCC2N)c1)n1c(=O)oc2cc(S(=O)(=O)Nc3cccc(F)n3)c(F)cc21 (stereo partly drawn) [Ex21-18, 3-[(1R)-1-{3-[(2-aminocyclopentyl)ethynyl]phenyl}ethyl]-5-fluoro-N-(6-fluoropyridin-2-yl)-2-oxo-2,3-dihydro-1,3-benzoxazole-6-sulfonamide]
ratio of Nav 1.5:Nav 1.7 potency (human Nav1.5): 64 | IC50 (human Nav1.7): 118 nM

SMILES: Cc1cc2c(cc1S(=O)(=O)Nc1cccc(F)n1)oc(=O)n2[C@H](C)c1cccc(C#CCN2CCC2)c1 [Ex21-20, 3-[(1R)-1-{3-[3-(azetidin-1-yl)prop-1-yn-l-yl]phenyl}ethyl]-N-(6-fluoropyridin-2-yl)-5-methyl-2-oxo-2,3-dihydro-1,3-benzoxazole-6-sulfonamide]
ratio of Nav 1.5:Nav 1.7 potency (human Nav1.5): 30 | IC50 (human Nav1.7): 200 nM

SMILES: Cc1c(C#CCN)cccc1[C@@H](C)n1c(=O)oc2cc(S(=O)(=O)Nc3cccc(F)n3)c(F)cc21 [Ex21-22, 3-{(1R)-1-[3-(3-aminoprop-1-yn-1-yl)-2-methylphenyl]ethyl}-5-fluoro-N-(6-fluoropyridin-2-yl)-2-oxo-2,3-dihydro-1,3-benzoxazole-6-sulfonamide]
ratio of Nav 1.5:Nav 1.7 potency (human Nav1.5): 220 | IC50 (human Nav1.7): 136 nM

SMILES: Cc1cc2c(cc1S(=O)(=O)Nc1cccc(F)n1)oc(=O)n2[C@H](C)c1cccc(C#CCN)c1C [Ex21-24, 3-{(1R)-1-[3-(3-aminoprop-1-yn-1-yl)-2-methylphenyl]ethyl}-N-(6-fluoropyridin-2-yl)-5-methyl-2-oxo-2,3-dihydro-1,3-benzoxazole-6-sulfonamide]
ratio of Nav 1.5:Nav 1.7 potency (human Nav1.5): 240 | IC50 (human Nav1.7): 102 nM

SMILES: Cc1cc2c(cc1S(=O)(=O)Nc1cccc(F)n1)oc(=O)n2[C@H](C)c1cccc(C)c1C#C[C@@H]1CCCC[C@@H]1N [Ex21-25, 3-[(1R)-1-(2-{[(1S,2S)-2-aminocyclohexyl]-ethynyl}-3-methylphenyl)ethyl]-N-(6-fluoropyridin-2-yl)-5-methyl-2-oxo-2,3-dihydro-1,3-benzoxazole-6-sulfonamide]
ratio of Nav 1.5:Nav 1.7 potency (human Nav1.5): 167 | IC50 (human Nav1.7): 9 nM

SMILES: Cc1cc2c(cc1S(=O)(=O)Nc1cccc(F)n1)oc(=O)n2[C@H](C)c1cccc(C)c1C#C[C@H]1CCCC[C@H]1N [Ex21-26, 3-[(1R)-1-(2-{[(1R,2R)-2-aminocyclohexyl]-ethynyl}-3-methylphenyl)ethyl]-N-(6-fluoropyridin-2-yl)-5-methyl-2-oxo-2,3-dihydro-1,3-benzoxazole-6-sulfonamide]
ratio of Nav 1.5:Nav 1.7 potency (human Nav1.5): 192 | IC50 (human Nav1.7): 16 nM

SMILES: Cc1cccc([C@@H](C)n2c(=O)oc3cc(S(=O)(=O)Nc4cccc(F)n4)c(F)cc32)c1C#C[C@@H]1CCCC[C@@H]1N [Ex21-27, 3-[(1R)-1-(2-{[(1S,2S)-2-aminocyclohexyl]-ethynyl}-3-methylphenyl)ethyl]-5-fluoro-N-(6-fluoropyridin-2-yl)-2-oxo-2,3-dihydro-1,3-benzoxazole-6-sulfonamide]
ratio of Nav 1.5:Nav 1.7 potency (human Nav1.5): 476 | IC50 (human Nav1.7): 32 nM

SMILES: C[C@H](c1cccc(CCCN)c1)n1c(=O)oc2cc(S(=O)(=O)Nc3cccc(F)n3)c(F)cc21 [Ex22-1, 3-{(1R)-1-[3-(3-aminopropyl)phenyl]ethyl}-5-fluoro-N-(6-fluoropyridin-2-yl)-2-oxo-2,3-dihydro-1,3-benzoxazole-6-sulfonamide]
ratio of Nav 1.5:Nav 1.7 potency (human Nav1.5): 380 | IC50 (human Nav1.7): 55 nM

Further lines, with some results ahead:

IC50 (human Nav1.7): 245 nM
SMILES: CNCC#Cc1cccc([C@@H](C)n2c(=O)oc3cc(S(=O)(=O)Nc4cccc(F)n4)c(F)cc32)c1 [Ex21-2, 5-fluoro-N-(6-fluoropyridin-2-yl)-3-[(1R)-1-{3-[3-(methylamino)prop-1-yn-1-yl]phenyl}ethyl]-2-oxo-2,3-dihydro-1,3-benzoxazole-6-sulfonamide]
ratio of Nav 1.5:Nav 1.7 potency (human Nav1.5): 122

IC50 (human Nav1.7): 808 nM
SMILES: C[C@H](c1cccc(C#CCN(C)C)c1)n1c(=O)oc2cc(S(=O)(=O)Nc3cccc(F)n3)c(F)cc21 [Ex21-3, 3-[(1R)-1-{3-[3-(dimethylamino)prop-1-yn-1-yl]phenyl}ethyl]-5-fluoro-N-(6-fluoropyridin-2-yl)-2-oxo-2,3-dihydro-1,3-benzoxazole-6-sulfonamide]
ratio of Nav 1.5:Nav 1.7 potency (human Nav1.5): 37

IC50 (human Nav1.7): 885 nM
SMILES: CC(N)C#Cc1cccc([C@@H](C)n2c(=O)oc3cc(S(=O)(=O)Nc4cccc(F)n4)c(F)cc32)c1 (stereo partly drawn) [Ex21-5, 3-{(1R)-1-[3-(3-aminobut-1-yn-1-yl)phenyl]ethyl}-5-fluoro-N-(6-fluoropyridin-2-yl)-2-oxo-2,3-dihydro-1,3-benzoxazole-6-sulfonamide]
ratio of Nav 1.5:Nav 1.7 potency (human Nav1.5): 34

IC50 (human Nav1.7): 337 nM
SMILES: C[C@H](c1cccc(C#CCN2CCCC2)c1)n1c(=O)oc2cc(S(=O)(=O)Nc3cccc(F)n3)c(F)cc21 [Ex21-7, 5-fluoro-N-(6-fluoropyridin-2-yl)-2-oxo-3-[(1R)-1-{3-[3-(pyrrolidin-1-yl)prop-1-yn-1-yl]phenyl}ethyl]-2,3-dihydro-1,3-benzoxazole-6-sulfonamide]
ratio of Nav 1.5:Nav 1.7 potency (human Nav1.5): 89

IC50 (human Nav1.7): 258 nM
SMILES: C[C@H](c1cccc(C#CC2(N)CC2)c1)n1c(=O)oc2cc(S(=O)(=O)Nc3cccc(F)n3)c(F)cc21 [Ex21-12, 3-[(1R)-1-{3-[(1-aminocyclopropyl)ethynyl]phenyl}ethyl]-5-fluoro-N-(6-fluoropyridin-2-yl)-2-oxo-2,3-dihydro-1,3-benzoxazole-6-sulfonamide]
ratio of Nav 1.5:Nav 1.7 potency (human Nav1.5): 116

IC50 (human Nav1.7): 116 nM
SMILES: C[C@H](c1cccc(C#CCN2CCC2)c1)n1c(=O)oc2cc(S(=O)(=O)Nc3cccc(F)n3)c(F)cc21 [Ex21-13, 3-[(1R)-1-{3-[3-(azetidin-1-yl)prop-1-yn-1-yl]phenyl}ethyl]-5-fluoro-N-(6-fluoropyridin-2-yl)-2-oxo-2,3-dihydro-1,3-benzoxazole-6-sulfonamide]
ratio of Nav 1.5:Nav 1.7 potency (human Nav1.5): 258

IC50 (human Nav1.7): 516 nM
SMILES: CCN(CC)CC#Cc1cccc([C@@H](C)n2c(=O)oc3cc(S(=O)(=O)Nc4cccc(F)n4)c(F)cc32)c1 [Ex21-15, 3-[(1R)-1-{3-[3-(diethylamino)prop-1-yn-1-yl]phenyl}ethyl]-5-fluoro-N-(6-fluoropyridin-2-yl)-2-oxo-2,3-dihydro-1,3-benzoxazole-6-sulfonamide]
ratio of Nav 1.5:Nav 1.7 potency (human Nav1.5): 58

IC50 (human Nav1.7): 155 nM
SMILES: C[C@H](c1cccc(C#CCN)c1)n1c(=O)oc2cc(S(=O)(=O)Nc3cccc(F)n3)c(F)cc21 [Ex21-21, 3-{(1R)-1-[3-(3-aminoprop-1-yn-1-yl)phenyl]ethyl}-5-fluoro-N-(6-fluoropyridin-2-yl)-2-oxo-2,3-dihydro-1,3-benzoxazole-6-sulfonamide]
ratio of Nav 1.5:Nav 1.7 potency (human Nav1.5): 193

IC50 (human Nav1.7): 90 nM
SMILES: Cc1cc2c(cc1S(=O)(=O)Nc1cccc(F)n1)oc(=O)n2[C@H](C)c1cccc(C#CCN)c1 [Ex21-23, 3-{(1R)-1-[3-(3-aminoprop-1-yn-1-yl)phenyl]ethyl}-N-(6-fluoropyridin-2-yl)-5-methyl-2-oxo-2,3-dihydro-1,3-benzoxazole-6-sulfonamide]
ratio of Nav 1.5:Nav 1.7 potency (human Nav1.5): 251
